The values that follow come from ChEMBL document CHEMBL1142415, “5-tert-butyl-N-pyrazol-4-yl-4,5,6,7-tetrahydrobenzo[d]isoxazole-3-carboxamide derivatives as novel potent inhibitors of Mycobacterium tuberculosis pantothenate synthetase: initiating a quest for new antitubercular drugs” (J Med Chem, 2008).

The target of test [1] is T1, Pantothenate synthetase (Mycobacterium tuberculosis) (UniProt P9WIL5).
T1 sequence (whole entry): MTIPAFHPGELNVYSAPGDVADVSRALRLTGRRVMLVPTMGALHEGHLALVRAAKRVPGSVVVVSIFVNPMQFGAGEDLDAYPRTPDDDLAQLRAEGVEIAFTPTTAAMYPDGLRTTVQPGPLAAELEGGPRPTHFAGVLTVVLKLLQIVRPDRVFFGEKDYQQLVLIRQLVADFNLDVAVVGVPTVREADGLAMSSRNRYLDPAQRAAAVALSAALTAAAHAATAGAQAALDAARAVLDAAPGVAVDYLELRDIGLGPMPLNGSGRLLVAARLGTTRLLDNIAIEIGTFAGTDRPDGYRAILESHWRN
The test is described as follows: Inhibition of Mycobacterium tuberculosis pantothenate synthetase at 100 uM.

The next test deals with T2, Pantothenate synthetase (Mycobacterium tuberculosis, UniProt P9WIL5).
T2 sequence (P9WIL5 whole entry): T1 sequence (whole entry)
The test can be described thus: Inhibition of Mycobacterium tuberculosis pantothenate synthetase.

Test [2] deals with Mycobacterium tuberculosis. The test can be described thus: Antibacterial activity against Mycobacterium tuberculosis at 128 uM by MABA assay. The class given is functional. Background: The colour change of resazurin is a common sign of viable cells or microbes.
Test [3] has as its system Mycobacterium tuberculosis. The test can be described thus: Antibacterial activity against Mycobacterium tuberculosis at 128 uM by LORA assay. The class given is functional.

In general, inhibition refers to the percentage by which the read-out fell short of the control. As a reminder, the IC50 is the concentration that inhibits the measured activity by half. Read a high IC50 as lower potency. `CC(C)(C)C1CCc2onc(C(=O)Nc3cnn(Cc4ccc(C(=O)NCc5ccccc5)cc4)c3)c2C1` (centres undefined) showed an inhibition in test [1] of 82%. The compound also registered an IC50 on Pantothenate synthetase of 210 nM. For the same compound, the inhibition at 128 µM was found to be 54% in test [2] and 46% in test [3].

`CC(C)(C)C1CCc2onc(C(=O)Nc3cnn(Cc4ccc(Cl)cc4)c3)c2C1` (centres undefined) had an inhibition in test [1] of 98%. Besides, the IC50 at Pantothenate synthetase was determined as 140 nM.

In test [1], `COC(=O)c1ccc(Cn2cc(NC(=O)c3noc4c3CC(C(C)(C)C)CC4)cn2)cc1` (centres undefined) gave an inhibition of 100%. This compound also returned an IC50 against Pantothenate synthetase of 160 nM. In addition, the inhibition at 128 µM in test [2] worked out at 48%; in test [3], 0%.

`CC(C)(C)C1CCc2onc(C(=O)Nc3cnn(Cc4ccc(C(=O)NCCc5ccccc5)cc4)c3)c2C1` (centres undefined) yielded an inhibition in test [1] of 78%. On Pantothenate synthetase, this compound registered an IC50 of 140 nM. In addition, the inhibition at 128 µM in test [2] turned out to be 19%; in test [3], 11%.

As to `CC(C)(C)C1CCc2onc(C(=O)Nc3cnn(Cc4ccc5ccccc5c4)c3)c2C1` (centres undefined), in test [1], the inhibition turned out to be 97%. The compound further showed an IC50 on Pantothenate synthetase of 90 nM. This compound also had an inhibition at 128 µM in test [2] of 43%.

With `CC(C)(C)C1CCc2onc(C(=O)Nc3cnn(C(=O)c4c(Cl)cc(Cl)cc4Cl)c3)c2C1` (centres undefined), the inhibition in test [1] was found to be 17%. Moreover, the inhibition at 128 µM worked out at 34% in test [2] and 26% in test [3].

In test [1], `CC(C)(C)C1CCc2onc(C(=O)O)c2C1` (centres undefined) returned an inhibition of 12%. In addition, the results for the inhibition at 128 µM in test [2] and in test [3] were 5% and 11%, respectively.

The compound `CC(C)(C)C1CCc2onc(C(=O)Nc3cnn(Cc4ccc(C(=O)O)cc4)c3)c2C1` (centres undefined) displayed an inhibition in test [1] of 99%. Besides, the IC50 on Pantothenate synthetase worked out at 460 nM. The inhibition at 128 µM amounted to 41% in test [2] and 2% in test [3].

Consider `CC(C)(C)C1CCc2onc(C(=O)Nc3cnn(Cc4ccccc4Br)c3)c2C1` (centres undefined), for which, in test [1], the inhibition turned out to be 94%. Besides, the IC50 on Pantothenate synthetase came out at 140 nM. Moreover, the inhibition at 128 µM was found to be 73% in test [2] and 24% in test [3].

As for `CC(C)(C)C1CCc2onc(C(=O)Nc3cnn(Cc4ccc(F)cc4)c3)c2C1` (centres undefined), in test [1], the inhibition is 98%. At Pantothenate synthetase, this compound came in with an IC50 of 150 nM. Moreover, the inhibition at 128 µM in test [2] and in test [3] was 0% throughout.

In turn, `CC(C)(C)OC(=O)c1ccc(Cn2cc(NC(=O)c3noc4c3CC(C(C)(C)C)CC4)cn2)cc1` (centres undefined) yielded an inhibition in test [1] of 79%. On Pantothenate synthetase, this compound displayed a concentration for half-maximal inhibition (IC50) of 250 nM.

In test [1], `CC(C)(C)C1CCc2onc(C(=O)Nc3cnn(Cc4ccccc4)c3)c2C1` (centres undefined) showed an inhibition of 100%. On Pantothenate synthetase, this compound displayed an IC50 of 97 nM. For the same compound, the inhibition at 128 µM in test [2] is 84%; in test [3], 62%.

The compound `CC(C)(C)C1CCc2onc(C(=O)Nc3cn[nH]c3)c2C1` (centres undefined) showed an inhibition in test [1] of 43%. Besides, at Pantothenate synthetase, the concentration for half-maximal inhibition (IC50) is 61000 nM. The inhibition at 128 µM in test [2] is 60%; in test [3], 4%.

In test [1], `CC(C)(C)C1CCc2onc(C(=O)Nc3cnn(Cc4ccc(F)cc4F)c3)c2C1` (centres undefined) had an inhibition of 100%. In addition, the IC50 against Pantothenate synthetase was 130 nM. The inhibition at 128 µM was 56% in test [2] and 47% in test [3].

Take `COc1ccc(Cc2noc(NC(=O)c3noc4c3CC(C(C)(C)C)CC4)c2C(N)=O)cc1` (centres undefined): in test [1], the inhibition is 79%. The compound further registered an IC50 on Pantothenate synthetase of 7130 nM. Moreover, the inhibition at 128 µM in test [2] and in test [3] was 14% in each case.

`O=C(Nc1cnn(Cc2ccc(Cl)cc2Cl)c1)c1noc2c1CCCC2`: the inhibition in test [1] is 18%. In addition, the figures for the inhibition at 128 µM in test [2] and in test [3] were 70% and 53%, respectively.

`CC(C)(C)C1CCc2onc(C(=O)Nc3cnn(Cc4ccccc4I)c3)c2C1` (centres undefined) had an inhibition in test [1] of 84%. Moreover, inhibition against Pantothenate synthetase was half-maximal at 160 nM (IC50). Moreover, the values for the inhibition at 128 µM in test [2] and in test [3] were 70% and 12%, respectively.

For the compound `Cc1ccccc1Cn1cc(NC(=O)c2noc3c2CC(C(C)(C)C)CC3)cn1` (centres undefined), the inhibition in test [1] was 89%. Besides, it took 120 nM to reach half-maximal inhibition against Pantothenate synthetase (IC50). The figures for the inhibition at 128 µM in test [2] and in test [3] were 46% and 15%, respectively.
